Drawing on ChEMBL document CHEMBL1201862, “PubChem BioAssay data set” (2004), this text covers IC50 and AC50 for seven molecules.

One experiment deals with T1, Coagulation factor XII (Homo sapiens, UniProt P00748).
T1 sequence (P00748 whole entry): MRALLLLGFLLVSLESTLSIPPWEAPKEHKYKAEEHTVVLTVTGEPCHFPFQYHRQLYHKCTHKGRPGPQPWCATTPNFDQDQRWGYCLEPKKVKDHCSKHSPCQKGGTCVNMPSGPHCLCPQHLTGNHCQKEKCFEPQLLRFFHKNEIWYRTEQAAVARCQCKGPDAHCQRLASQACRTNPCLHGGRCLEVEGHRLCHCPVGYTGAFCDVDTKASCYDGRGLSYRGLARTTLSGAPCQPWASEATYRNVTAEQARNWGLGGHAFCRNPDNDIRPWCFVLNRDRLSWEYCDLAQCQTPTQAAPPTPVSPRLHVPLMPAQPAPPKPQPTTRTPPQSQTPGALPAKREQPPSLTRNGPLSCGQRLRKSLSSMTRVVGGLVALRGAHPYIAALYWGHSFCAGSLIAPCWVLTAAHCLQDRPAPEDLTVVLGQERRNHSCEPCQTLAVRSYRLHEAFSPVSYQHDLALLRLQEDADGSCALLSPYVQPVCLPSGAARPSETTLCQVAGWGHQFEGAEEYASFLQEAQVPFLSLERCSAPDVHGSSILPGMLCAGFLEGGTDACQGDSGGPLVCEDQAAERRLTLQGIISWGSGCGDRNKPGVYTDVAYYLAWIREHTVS
Nature of the experiment: activated coagulation factor XII inhibitor potency, concentration-effect curve, cell-free (AID 716). The class given is functional.

In experiment [1] the target is DNA dC->dU-editing enzyme APOBEC-3A (Homo sapiens, UniProt P31941). Nature of the experiment: A3A deaminase inhibition for selectivity – biochemical, dose response (AID 504722). The experiment is classed as functional.
Chain of DNA dC->dU-editing enzyme APOBEC-3A (P31941 whole entry): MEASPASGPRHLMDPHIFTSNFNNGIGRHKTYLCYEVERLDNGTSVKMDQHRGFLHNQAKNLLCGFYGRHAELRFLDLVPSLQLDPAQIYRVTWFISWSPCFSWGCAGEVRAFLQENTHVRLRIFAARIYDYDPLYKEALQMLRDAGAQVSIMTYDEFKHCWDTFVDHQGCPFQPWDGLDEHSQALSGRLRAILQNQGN
Experiment [2] addresses DNA dC->dU-editing enzyme APOBEC-3G (Homo sapiens, UniProt Q9HC16). Nature of the experiment: Dose Response confirmation of small molecule APOBEC3G DNA Deaminase Inhibitors via a fluorescence-based single-stranded DNA deaminase assay. [Related pubchem assays (depositor defined):AID493012, AID493028]. The class given is functional.
The next experiment deals with Hexokinase (Trypanosoma brucei, UniProt Q38C41). Nature of the experiment: Confirmation assay for inhibitors of Trypanosoma brucei hexokinase 1-Analogue-first series. [Related pubchem assays (depositor defined):AID1430, AID1632, AID2516, AID2560, AID2579, AID2600, AID449725, AID492951]. The class given is functional.
Chain of Hexokinase (Q38C41 whole entry): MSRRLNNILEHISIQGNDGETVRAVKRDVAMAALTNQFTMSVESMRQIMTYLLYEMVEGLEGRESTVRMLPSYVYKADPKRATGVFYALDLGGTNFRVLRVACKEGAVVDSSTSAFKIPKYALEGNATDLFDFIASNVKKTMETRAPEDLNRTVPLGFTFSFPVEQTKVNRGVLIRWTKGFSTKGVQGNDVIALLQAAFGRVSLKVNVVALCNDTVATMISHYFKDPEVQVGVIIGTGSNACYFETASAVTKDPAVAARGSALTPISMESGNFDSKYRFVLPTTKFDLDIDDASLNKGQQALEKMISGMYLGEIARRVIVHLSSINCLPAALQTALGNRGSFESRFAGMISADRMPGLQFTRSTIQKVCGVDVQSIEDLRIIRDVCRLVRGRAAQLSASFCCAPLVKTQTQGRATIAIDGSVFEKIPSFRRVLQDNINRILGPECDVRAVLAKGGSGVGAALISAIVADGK
The target of experiment [3] is Polyadenylate-binding protein 1 (Homo sapiens, UniProt P11940). The experiment is described as follows: PABP inhibition in translation initiation, SAR follow-up (AID 435018). The experiment is classed as functional.
Chain of Polyadenylate-binding protein 1 (P11940 whole entry): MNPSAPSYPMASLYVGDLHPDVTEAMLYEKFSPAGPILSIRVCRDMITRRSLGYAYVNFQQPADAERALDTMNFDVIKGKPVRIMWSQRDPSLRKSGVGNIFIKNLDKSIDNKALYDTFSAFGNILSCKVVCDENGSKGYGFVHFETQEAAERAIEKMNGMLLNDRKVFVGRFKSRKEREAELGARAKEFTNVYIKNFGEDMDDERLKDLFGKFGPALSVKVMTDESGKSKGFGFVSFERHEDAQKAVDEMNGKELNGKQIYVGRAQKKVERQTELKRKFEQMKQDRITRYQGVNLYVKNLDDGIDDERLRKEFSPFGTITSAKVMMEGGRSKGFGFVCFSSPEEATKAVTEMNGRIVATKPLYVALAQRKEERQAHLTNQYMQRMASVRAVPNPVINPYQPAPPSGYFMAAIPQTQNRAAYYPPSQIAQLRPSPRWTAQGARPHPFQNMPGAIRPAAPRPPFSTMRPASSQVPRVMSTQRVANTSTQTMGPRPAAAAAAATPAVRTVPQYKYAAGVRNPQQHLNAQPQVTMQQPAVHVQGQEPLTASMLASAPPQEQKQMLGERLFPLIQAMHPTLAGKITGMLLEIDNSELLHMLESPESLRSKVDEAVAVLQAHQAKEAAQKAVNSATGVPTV
Experiment [4] deals with Eukaryotic translation initiation factor 4H (Homo sapiens, UniProt Q15056). Nature of the experiment: inhibitors of translation initiation factor eIF4H – SAR follow-up (AID 435011). The class given is functional.
Experiment [5] deals with Cystic fibrosis transmembrane conductance regulator/Golgi-associated PDZ and coiled-coil motif-containing protein (Homo sapiens, UniProt P13569+Q9HD26). The experiment is described as follows: potency against CAL PDZ-peptide interaction – biochemical, fluorescence polarization, Cerulean-tagged CAL PDZ, cherry-picks, dose response (AID 504773).
Chain of Cystic fibrosis transmembrane conductance regulator/Golgi-associated PDZ and coiled-coil motif-containing protein (P13569 whole entry, other chains not shown): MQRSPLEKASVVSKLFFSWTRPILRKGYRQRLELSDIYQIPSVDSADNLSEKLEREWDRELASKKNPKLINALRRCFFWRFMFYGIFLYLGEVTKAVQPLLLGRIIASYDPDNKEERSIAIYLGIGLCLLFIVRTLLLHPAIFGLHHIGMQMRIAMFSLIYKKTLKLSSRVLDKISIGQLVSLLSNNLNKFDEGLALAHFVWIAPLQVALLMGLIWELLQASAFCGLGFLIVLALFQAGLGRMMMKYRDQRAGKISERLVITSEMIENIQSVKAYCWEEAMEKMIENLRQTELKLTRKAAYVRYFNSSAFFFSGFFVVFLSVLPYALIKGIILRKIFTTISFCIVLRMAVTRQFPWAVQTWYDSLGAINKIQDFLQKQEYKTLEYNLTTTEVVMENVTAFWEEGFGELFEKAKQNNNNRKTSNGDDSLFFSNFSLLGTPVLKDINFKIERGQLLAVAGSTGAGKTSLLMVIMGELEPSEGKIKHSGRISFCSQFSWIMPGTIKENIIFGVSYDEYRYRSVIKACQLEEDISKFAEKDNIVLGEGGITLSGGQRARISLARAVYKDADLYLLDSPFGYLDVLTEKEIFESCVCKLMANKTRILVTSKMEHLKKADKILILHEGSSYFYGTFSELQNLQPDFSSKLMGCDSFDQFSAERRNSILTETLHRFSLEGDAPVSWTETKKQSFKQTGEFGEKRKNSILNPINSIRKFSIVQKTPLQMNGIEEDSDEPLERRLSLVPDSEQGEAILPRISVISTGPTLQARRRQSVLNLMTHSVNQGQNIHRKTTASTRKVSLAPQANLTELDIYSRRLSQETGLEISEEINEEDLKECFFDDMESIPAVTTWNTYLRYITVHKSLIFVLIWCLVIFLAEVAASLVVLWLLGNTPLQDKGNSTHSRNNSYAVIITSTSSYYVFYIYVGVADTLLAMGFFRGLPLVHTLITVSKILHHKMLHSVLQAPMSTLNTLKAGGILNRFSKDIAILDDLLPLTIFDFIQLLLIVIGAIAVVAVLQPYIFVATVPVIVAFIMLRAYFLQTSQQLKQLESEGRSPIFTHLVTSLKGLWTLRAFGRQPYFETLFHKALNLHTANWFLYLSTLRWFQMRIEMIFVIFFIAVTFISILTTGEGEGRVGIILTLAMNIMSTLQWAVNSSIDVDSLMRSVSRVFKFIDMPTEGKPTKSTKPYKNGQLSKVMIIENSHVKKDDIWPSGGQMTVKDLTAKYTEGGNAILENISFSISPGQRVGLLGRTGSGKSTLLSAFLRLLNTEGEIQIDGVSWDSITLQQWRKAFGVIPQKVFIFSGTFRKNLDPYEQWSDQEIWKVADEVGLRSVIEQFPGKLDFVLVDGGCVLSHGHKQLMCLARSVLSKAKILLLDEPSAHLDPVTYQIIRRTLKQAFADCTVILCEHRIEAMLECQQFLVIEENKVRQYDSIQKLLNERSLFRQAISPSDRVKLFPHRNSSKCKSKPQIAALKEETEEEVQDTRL
In the next experiment the target is Mu-type opioid receptor (Homo sapiens, UniProt P35372). Nature of the experiment: SAR Analysis of Antagonists of the MOR Receptor using an Image-Based Assay - Set 3. [Related pubchem assays (depositor defined):AID1777, AID1785, AID1786, AID1966, AID2133, AID2136, AID2284, AID2285, AID2420]. The class given is functional.
Chain of Mu-type opioid receptor (P35372 whole entry): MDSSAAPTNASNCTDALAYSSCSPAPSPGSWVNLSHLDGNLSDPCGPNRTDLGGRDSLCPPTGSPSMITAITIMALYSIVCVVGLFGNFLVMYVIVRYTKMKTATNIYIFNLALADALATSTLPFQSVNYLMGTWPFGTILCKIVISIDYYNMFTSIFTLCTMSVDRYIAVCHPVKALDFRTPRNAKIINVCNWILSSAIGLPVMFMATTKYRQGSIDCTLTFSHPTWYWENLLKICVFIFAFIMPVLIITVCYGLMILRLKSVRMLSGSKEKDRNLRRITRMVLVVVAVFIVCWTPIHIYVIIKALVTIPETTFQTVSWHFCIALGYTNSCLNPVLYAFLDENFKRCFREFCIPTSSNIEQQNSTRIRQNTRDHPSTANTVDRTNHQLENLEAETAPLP
Experiment [6] has as its target Delta-type opioid receptor (Homo sapiens, UniProt P41143). The experiment is described as follows: SAR Analysis of Antagonists of the DOR Receptor using an Image-Based Assay - Set 3. [Related pubchem assays (depositor defined):AID1777, AID1785]. The experiment is classed as functional.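 Also: U2OS cells expressing DOR1 and beta-arrestin GFP stimulated with 100 nM SNC80; imaging of GFP-tagged beta-arrestin moving into spots after receptor activation.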
In experiment [7] the target is T2, Kappa-type opioid receptor (Homo sapiens, UniProt P41145). Nature of the experiment: SAR analysis of Antagonists of the Kappa Opioid Receptor (KOR) using an Image-Based Assay - Set 4. [Related pubchem assays (depositor defined):AID1777, AID1785]. The experiment is classed as functional.
T2 sequence (P41145 whole entry): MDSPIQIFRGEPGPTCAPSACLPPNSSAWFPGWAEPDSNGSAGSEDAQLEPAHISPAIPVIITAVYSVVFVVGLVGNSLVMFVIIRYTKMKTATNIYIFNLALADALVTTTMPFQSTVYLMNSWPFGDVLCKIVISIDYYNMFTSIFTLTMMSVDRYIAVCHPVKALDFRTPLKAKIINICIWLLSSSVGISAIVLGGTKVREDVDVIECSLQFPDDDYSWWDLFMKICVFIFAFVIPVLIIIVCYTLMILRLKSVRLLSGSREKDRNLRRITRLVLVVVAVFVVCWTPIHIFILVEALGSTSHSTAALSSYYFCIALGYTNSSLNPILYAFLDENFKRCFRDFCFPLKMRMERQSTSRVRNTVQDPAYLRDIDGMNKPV
Experiment [8] deals with T2, Kappa-type opioid receptor. Nature of the experiment: SAR analysis of small molecule antagonists of the kappa opioid receptor via a luminescent beta-arrestin assay - Set 4. [Related pubchem assays (depositor defined):AID1777, AID1778, AID1785, AID1786, AID1966, AID2133, AID2136, AID2285]. The experiment is classed as functional.
In experiment [9] the target is T2, Kappa-type opioid receptor. Nature of the experiment: SAR analysis of small molecule antagonists of the kappa opioid receptor via a luminescent beta-arrestin assay - Set 6. [Related pubchem assays (depositor defined):AID1777, AID1778, AID1785, AID1786, AID1966, AID2133, AID2136, AID2285]. The experiment is classed as functional.
Another experiment addresses Importin subunit alpha-1 (Homo sapiens, UniProt P52292). Nature of the experiment: compounds lowering YIC probe YFP/CFP ratio – biochemical, dry powder samples, FRET, counter-screen for RanGTP-importin-beta inhibitor project, dose response (AID 493094). The experiment is classed as functional. For orientation: Counterscreens check selectivity or assay interference.

Structures are written as SMILES. Active and inactive are the calls of the source.

Chain of Delta-type opioid receptor (P41143 whole entry): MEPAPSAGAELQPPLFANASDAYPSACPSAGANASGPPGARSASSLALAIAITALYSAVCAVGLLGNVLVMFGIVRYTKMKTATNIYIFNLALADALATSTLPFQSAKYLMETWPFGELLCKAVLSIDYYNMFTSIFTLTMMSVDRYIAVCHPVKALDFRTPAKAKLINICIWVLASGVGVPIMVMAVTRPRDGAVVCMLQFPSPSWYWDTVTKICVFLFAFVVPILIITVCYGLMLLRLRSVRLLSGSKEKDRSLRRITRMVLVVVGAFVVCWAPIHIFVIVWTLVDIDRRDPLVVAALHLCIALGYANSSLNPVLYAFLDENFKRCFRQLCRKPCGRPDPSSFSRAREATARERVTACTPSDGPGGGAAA
Chain of DNA dC->dU-editing enzyme APOBEC-3G (Q9HC16 whole entry): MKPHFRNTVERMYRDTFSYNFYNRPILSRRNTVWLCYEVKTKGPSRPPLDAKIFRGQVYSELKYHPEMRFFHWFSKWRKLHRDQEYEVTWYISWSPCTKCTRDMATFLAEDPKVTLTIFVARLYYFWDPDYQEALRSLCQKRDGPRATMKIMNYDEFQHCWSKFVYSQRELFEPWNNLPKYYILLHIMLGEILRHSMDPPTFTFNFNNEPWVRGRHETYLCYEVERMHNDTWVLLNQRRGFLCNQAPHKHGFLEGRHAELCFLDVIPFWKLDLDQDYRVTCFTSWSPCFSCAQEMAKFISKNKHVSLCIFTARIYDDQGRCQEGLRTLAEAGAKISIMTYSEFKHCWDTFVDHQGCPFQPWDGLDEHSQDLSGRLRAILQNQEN

`COC(=O)c1ccccc1NC(=O)N1CCN(C(=O)c2ccco2)CC1`: the IC50 – broadly, the concentration that gives 50% inhibition – on Coagulation factor XII was > 50 µM (inactive).

Take `Cc1cccc(C)c1OCc1nnc(S)n1N`: the IC50 in [1] is > 100 µM (inactive); in [2], 5.83 µM (active).

For `CCOC(=O)c1ccncc1NC(=O)c1ccc(OC)cc1`, the IC50 at Hexokinase is > 25 µM (inactive). Regarding `COc1cc(/C=N/NC(=O)c2ccccc2O)ccc1OCC(=O)Nc1ccc([N+](=O)[O-])cc1`, the IC50 in [3] and in experiment [4] was > 100 µM (inactive) each time. On to `O=C1C=C(c2ccccc2)C(c2ccccc2)C1` (stereo not drawn), for which, in experiment [5], the AC50 – broadly, the midpoint of the concentration-response curve, whichever way the signal moves – is 17 µM (active).

Turning to `Cc1ccc(S(=O)(=O)NCc2ccc(C(=O)NCCN(Cc3ccccc3)C3CCCC3)cc2)cc1`, the IC50 at Mu-type opioid receptor was 3.31 µM (active); in [6], > 32 µM (inactive); in [7], 0.137 µM (active); in [8] it was 0.558 µM (active); in [9], 0.71 µM (active). As to `Cc1cccc(C)c1NC(=O)C1C(=O)c2sccc2N(C)S1(=O)=O` (stereo not drawn), the AC50 at Importin subunit alpha-1 is 273 µM (active).
